#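 Five compound concentrations were applied to cells in 96-well plates for 48 hours; endpoints were derived by simple linear interpolation of the resulting dose-response curve. GI50 marks 50% less growth. TGI: total growth inhibition.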
# Assays:
# Assay in all cases: NCI tumour cell line growth inhibition, 48 h
# 786-0 renal = system: 786-0 renal
# A498 renal = system: A498 renal
# A549 NSCLC = system: A549 NSCLC
# ACHN renal = system: ACHN renal
# BT-549 breast = system: BT-549 breast
# CAKI-1 renal = system: CAKI-1 renal
# CCRF-CEM leukemia = system: CCRF-CEM leukemia
# COLO 205 colon = system: COLO 205 colon
# DU-145 prostate = system: DU-145 prostate
# EKVX NSCLC = system: EKVX NSCLC
# HCC-2998 colon = system: HCC-2998 colon
# HCT-116 colon = system: HCT-116 colon
# HCT-15 colon = system: HCT-15 colon
# HL-60(TB) leukemia = system: HL-60(TB) leukemia
# HOP-62 NSCLC = system: HOP-62 NSCLC
# HOP-92 NSCLC = system: HOP-92 NSCLC
# HS 578T breast = system: HS 578T breast
# HT29 colon = system: HT29 colon
# IGROV1 ovarian = system: IGROV1 ovarian
# K-562 leukemia = system: K-562 leukemia
# KM12 colon = system: KM12 colon
# LOX IMVI melanoma = system: LOX IMVI melanoma
# M14 melanoma = system: M14 melanoma
# MALME-3M melanoma = system: MALME-3M melanoma
# MCF7 breast = system: MCF7 breast
# MDA-MB-231 breast = system: MDA-MB-231 breast
# MDA-MB-435 = system: MDA-MB-435
# MOLT-4 leukemia = system: MOLT-4 leukemia
# NCI-H226 lung = system: NCI-H226 lung
# NCI-H460 lung = system: NCI-H460 lung
# NCI-H522 lung = system: NCI-H522 lung
# NCI/ADR-RES ovarian = system: NCI/ADR-RES ovarian
# OVCAR-3 ovarian = system: OVCAR-3 ovarian
# OVCAR-4 ovarian = system: OVCAR-4 ovarian
# OVCAR-5 ovarian = system: OVCAR-5 ovarian
# OVCAR-8 ovarian = system: OVCAR-8 ovarian
# PC-3 prostate = system: PC-3 prostate
# RPMI-8226 leukemia = system: RPMI-8226 leukemia
# RXF 393 renal = system: RXF 393 renal
# SF-268 CNS = system: SF-268 CNS
# SF-295 CNS = system: SF-295 CNS
# SF-539 CNS = system: SF-539 CNS
# SK-MEL-2 melanoma = system: SK-MEL-2 melanoma
# SK-MEL-28 melanoma = system: SK-MEL-28 melanoma
# SK-MEL-5 melanoma = system: SK-MEL-5 melanoma
# SK-OV-3 ovarian = system: SK-OV-3 ovarian
# SN12C renal = system: SN12C renal
# SNB-19 CNS = system: SNB-19 CNS
# SNB-75 CNS = system: SNB-75 CNS
# SR leukemia = system: SR leukemia
# SW-620 colon = system: SW-620 colon
# T-47D breast = system: T-47D breast
# TK-10 renal = system: TK-10 renal
# U251 CNS = system: U251 CNS
# UACC-257 melanoma = system: UACC-257 melanoma
# UACC-62 melanoma = system: UACC-62 melanoma
# UO-31 renal = system: UO-31 renal
compound,measurement,setting,value
O=C1[C@H]2Cc3c([nH]c4ccccc34)[C@@H](c3ccc(Br)cc3)N2C(=O)CN1C1CCN(CC2CCCCC2)CC1,GI50,786-0 renal,15.6 µM
same,TGI,786-0 renal,29.4 µM
same,GI50,A498 renal,13.7 µM
same,TGI,A498 renal,26.9 µM
same,GI50,A549 NSCLC,18.3 µM
same,TGI,A549 NSCLC,39.9 µM
same,GI50,ACHN renal,15.3 µM
same,TGI,ACHN renal,28.7 µM
same,GI50,BT-549 breast,15.5 µM
same,TGI,BT-549 breast,29.6 µM
same,GI50,CAKI-1 renal,14.6 µM
same,TGI,CAKI-1 renal,28.2 µM
same,GI50,CCRF-CEM leukemia,24.1 µM
same,TGI,CCRF-CEM leukemia,56.5 µM
same,GI50,COLO 205 colon,14.3 µM
same,TGI,COLO 205 colon,30.2 µM
same,GI50,DU-145 prostate,17.6 µM
same,TGI,DU-145 prostate,33.6 µM
same,GI50,EKVX NSCLC,13.8 µM
same,TGI,EKVX NSCLC,27.4 µM
same,GI50,HCC-2998 colon,14.4 µM
same,TGI,HCC-2998 colon,28 µM
same,GI50,HCT-116 colon,13.6 µM
same,TGI,HCT-116 colon,27.2 µM
same,GI50,HCT-15 colon,16 µM
same,TGI,HCT-15 colon,30.8 µM
same,GI50,HL-60(TB) leukemia,16.4 µM
same,TGI,HL-60(TB) leukemia,41.8 µM
same,GI50,HOP-62 NSCLC,16.2 µM
same,TGI,HOP-62 NSCLC,34.6 µM
same,GI50,HOP-92 NSCLC,6.7 µM
same,TGI,HOP-92 NSCLC,21.1 µM
same,GI50,HS 578T breast,18.4 µM
same,TGI,HS 578T breast,45.1 µM
same,GI50,HT29 colon,14.8 µM
same,TGI,HT29 colon,35 µM
same,GI50,IGROV1 ovarian,13.4 µM
same,TGI,IGROV1 ovarian,26.7 µM
same,GI50,K-562 leukemia,16.5 µM
same,TGI,K-562 leukemia,53.1 µM
same,GI50,KM12 colon,17 µM
same,TGI,KM12 colon,34 µM
same,GI50,LOX IMVI melanoma,18.6 µM
same,TGI,LOX IMVI melanoma,34.3 µM
same,GI50,M14 melanoma,16.9 µM
same,TGI,M14 melanoma,32.9 µM
same,GI50,MALME-3M melanoma,13.8 µM
same,TGI,MALME-3M melanoma,28.3 µM
same,GI50,MCF7 breast,10.1 µM
same,TGI,MCF7 breast,22.3 µM
same,GI50,MDA-MB-231 breast,15.2 µM
same,TGI,MDA-MB-231 breast,30.1 µM
same,GI50,MDA-MB-435,16.9 µM
same,TGI,MDA-MB-435,31.6 µM
same,GI50,MOLT-4 leukemia,20.4 µM
same,TGI,MOLT-4 leukemia,81.6 µM
same,GI50,NCI-H226 lung,30.4 µM
same,TGI,NCI-H226 lung,> 100 µM
same,GI50,NCI-H460 lung,18.8 µM
same,TGI,NCI-H460 lung,36.1 µM
same,GI50,NCI-H522 lung,17.9 µM
same,TGI,NCI-H522 lung,39.9 µM
same,GI50,NCI/ADR-RES ovarian,16.7 µM
same,TGI,NCI/ADR-RES ovarian,34.1 µM
same,GI50,OVCAR-3 ovarian,15.3 µM
same,TGI,OVCAR-3 ovarian,29.5 µM
same,GI50,OVCAR-4 ovarian,17.9 µM
same,TGI,OVCAR-4 ovarian,37.1 µM
same,GI50,OVCAR-5 ovarian,15.1 µM
same,TGI,OVCAR-5 ovarian,28.8 µM
same,GI50,OVCAR-8 ovarian,22.5 µM
same,TGI,OVCAR-8 ovarian,55.5 µM
same,GI50,PC-3 prostate,12.4 µM
same,TGI,PC-3 prostate,25.5 µM
same,GI50,RPMI-8226 leukemia,23.4 µM
same,TGI,RPMI-8226 leukemia,53.4 µM
same,GI50,RXF 393 renal,11.9 µM
same,TGI,RXF 393 renal,24.2 µM
same,GI50,SF-268 CNS,15.3 µM
same,TGI,SF-268 CNS,31.9 µM
same,GI50,SF-295 CNS,17.5 µM
same,TGI,SF-295 CNS,31.9 µM
same,GI50,SF-539 CNS,15.5 µM
same,TGI,SF-539 CNS,29.5 µM
same,GI50,SK-MEL-2 melanoma,23 µM
same,TGI,SK-MEL-2 melanoma,58.7 µM
same,GI50,SK-MEL-28 melanoma,16.4 µM
same,TGI,SK-MEL-28 melanoma,30.6 µM
same,GI50,SK-MEL-5 melanoma,16.1 µM
same,TGI,SK-MEL-5 melanoma,29.9 µM
same,GI50,SK-OV-3 ovarian,21.9 µM
same,TGI,SK-OV-3 ovarian,59.3 µM
same,GI50,SN12C renal,15.8 µM
same,TGI,SN12C renal,30.9 µM
same,GI50,SNB-19 CNS,15.9 µM
same,TGI,SNB-19 CNS,31.5 µM
same,GI50,SNB-75 CNS,87.1 µM
same,TGI,SNB-75 CNS,> 100 µM
same,GI50,SR leukemia,16 µM
same,TGI,SR leukemia,46.1 µM
same,GI50,SW-620 colon,16.5 µM
same,TGI,SW-620 colon,31.8 µM
same,GI50,T-47D breast,13.9 µM
same,TGI,T-47D breast,> 100 µM
same,GI50,TK-10 renal,17.8 µM
same,TGI,TK-10 renal,35.1 µM
same,GI50,U251 CNS,16.4 µM
same,TGI,U251 CNS,34 µM
same,GI50,UACC-257 melanoma,20.2 µM
same,TGI,UACC-257 melanoma,42.7 µM
same,GI50,UACC-62 melanoma,16 µM
same,TGI,UACC-62 melanoma,29.9 µM
same,GI50,UO-31 renal,11.7 µM
same,TGI,UO-31 renal,24.2 µM

# — PubChem BioAssay (NCI)
